Measurements taken from ChEMBL document CHEMBL3832053, “DailyMed|setid=94de983f-549b-42ed-9f40-b022aa3bef0f | TRANDOLAPRIL- trandolapril tablet|Carilion Materials Management”.
“And” between values parts separate entries of the source, which are not always exact repeats. Identical values can stand only once.

Test system: Homo sapiens
Test: Pharmacokinetic parameters for Trandolapril or its active metabolite of Trandolaprilat, after oral or intravenous (IV) administration of Trandolapril.
Details: in vivo; for Total CL: iv

Total CL	Excretion (po)	F (po)	Protein binding (po)	t1/2 ss (po)	CL renal (po)	t1/2 (po)	SMILES
7 L/h	66% and 33%	70%	94% and 65%	22.5 h	–	–	C[C@H](N[C@@H](CCc1ccccc1)C(=O)O)C(=O)N1[C@H](C(=O)O)C[C@H]2CCCC[C@@H]21 [TRANDOLAPRILAT]
52 L/h	–	–	–	–	1 to 4 L/h	6 h	CCOC(=O)[C@H](CCc1ccccc1)N[C@@H](C)C(=O)N1[C@H](C(=O)O)C[C@H]2CCCC[C@@H]21 [TRANDOLAPRIL]
